Tested on: v6A3 cells
Assay: MTT assay, v6A3 cells
Type: cell-based
Settings: Homo sapiens, PC-3M, 48 h, 5000 cells per well, triplicate, 562 nm, after continuous passage for one month, P< 0.05 vs PC3M, read-out: DOX IC50 of v6A3

Molecule COc1cccc2c1C(=O)c1c(O)c3c(c(O)c1C2=O)C[C@@](O)(C(=O)CO)C[C@@H]3O[C@H]1C[C@H](N)[C@H](O)[C@H](C)O1 [DOX, doxorubicin] has an IC50 of 140 nM.
